{"source": "patent US4957902A", "about": "“Peptide inhibitors of wound contraction” (Board of Regents, the University of Texas System, priority 1988, dated 1990)", "tested_on": "Human skin fibroblasts on collagen-coated surfaces", "format": "cell-based", "settings": "0.5 mg/ml peptide; serum-free DMEM; 60 minutes", "method": "The incubations contained peptides at the concentrations indicated and cell spreading was measured after 60 minute Method: Falcon 35 mm tissue culture dishes were coated with collagen (Vitrogen 100; 50 ug/ml in DMEM) for 15 minutes at 37° C. and counter-coated for 15 minutes with 1 mg/ml heat denatured bovine serum albumin. Human skin fibroblasts in DMEM with peptides added at the concentrations indicated were incubated on the substrata for 60 minutes at 37°. The end of the incubations, the cells were fixed and projected cell surface areas were measured by superimposing the microscopic field on the digitizing tablet of a Zidas image analyzer. Data presented are averages±95% confidence limits based on measurement of 50-100 cells. See reference 21 for complete details."}
{"smiles": "N=C(N)NCCC[C@H](NC(=O)CN)C(=O)NCC(=O)N[C@@H](CC(=O)O)C(=O)N[C@@H](CO)C(=O)N1CCC[C@H]1C(=O)O", "note": "[GRGDSP, Gly--Arg--Gly--Asp--Ser--Pro]", "values": [{"measurement": "inhibition of cell spreading on collagen-coated surfaces", "result": "about 50%"}]}
